Measured values published in patent US7452997B2 (priority 2004, dated 2008).
Like-named read-outs stand apart in the source and are kept apart here.

Tests used:
human CB1 receptor [1] = target: T1, human CB1 receptor (Homo sapiens, UniProt P21554); assay: Functional cell-based assay, CB1 receptor mediated change in CRE β-gal expression (agonist / inverse agonist)
T1 construct: expressed in transfected cells; host or cells: SK-N-MC cells, stably transfected with pcDNA3 CB-1 (human); semi-purified membrane pellet
T1 sequence (P21554 whole entry): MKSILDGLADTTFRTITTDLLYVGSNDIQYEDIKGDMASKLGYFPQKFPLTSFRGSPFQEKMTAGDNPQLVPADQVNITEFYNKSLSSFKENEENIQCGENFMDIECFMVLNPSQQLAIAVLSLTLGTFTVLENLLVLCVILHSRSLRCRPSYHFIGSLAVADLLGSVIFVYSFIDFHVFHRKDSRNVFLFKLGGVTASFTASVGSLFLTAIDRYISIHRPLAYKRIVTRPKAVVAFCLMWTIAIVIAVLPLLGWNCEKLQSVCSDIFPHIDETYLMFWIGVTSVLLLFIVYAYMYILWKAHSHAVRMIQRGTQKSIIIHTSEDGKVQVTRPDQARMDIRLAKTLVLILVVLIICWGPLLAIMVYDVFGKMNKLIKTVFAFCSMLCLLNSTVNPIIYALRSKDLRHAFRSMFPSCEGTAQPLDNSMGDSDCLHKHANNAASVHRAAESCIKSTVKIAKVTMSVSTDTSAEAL
Excerpt: Functional Cell-Based Assay for CB1 or CB2 Agonist and Inverse Agonist Effects on Intra-Cellular Adenylate Cyclase Activity
The CB1 and CB2 receptors are G-protein coupled receptors (GPCR) which influence cell function via the Gi-protein. These receptors modulate the activity of intracellular adenylate cyclase which in turn produces the intracellular signal messenger cyclic-AMP (cAMP).
At baseline, or during non-ligand bound conditions, these receptors are constitutively active and tonically suppress adenylate cyclase activity. The binding of an agonists causes further receptor activation and produces additional suppression of adenylate cyclase activity. The binding of an inverse agonist inhibits the constitutive activity of the receptors and results in an increase in adenylate cyclase activity.
By monitoring intracellular adenylate cyclase activity, the ability of compounds to act as agonists or inverse agonists can be determined.
Test compounds were evaluated in SK-N-MC cells which, using standard transfection procedures, were stably transfected with human cDNA for pcDNA3-CRE β-gal and pcDNA3 CB1 receptor (human) or pcDNA3 CB2 receptor (human). By expressing CRE β-gal, the cells produced β-galactosidase in response to CRE promoter activation by cAMP. Cells expressing CRE β-gal and either the human CB1 or CB2 receptor will produce less β-galactosidase when treated with a CB1/CB2 agonist and will produce more β-galactosidase when treated with a CB1/CB2 inverse agonist.
The cells were grown in 96-well plates under standard cell culture conditions at 37° C. in a 5% CO2 atmosphere. After 3 days, the media was removed and a test compound in media (wherein the media was supplemented with 2 mM L-glutamine, […] sodium pyruvate, 0.1% low fatty acid FBS (fetal bovine serum) and antibiotics) was added to the cell. The plates were incubated for 30 minutes at 37° C. and the plate cells were then treated with forskolin over a 4-6 hour period, then washed and lysed. The β-galactosidase activity was quantitated using commercially available kit reagents (Promega Corp. Madison, Wis.) and a VMAX Plate Reader (Molecular Devices, Inc).
The change in β-galactosidase activity was determined by setting a vehicle treated cell's activity value at 100% and expressing the β-galactosidase activity measured in a corresponding compound treated cell as a percent of the vehicle treated cell activity.
The EC50 values for compounds tested were calculated by linear regression and were obtained from studies in which varying compound concentrations were used.

human CB2 receptor = human CB2 receptor (Homo sapiens, UniProt P34972); assay: Binding assay, cannabinoid CB2 receptor ([3H]-CP-55,940 displacement); conditions: SK-N-MC cell membranes, radioligand CP-55,940 0.2 nM
Chain of human CB2 receptor (P34972 whole entry): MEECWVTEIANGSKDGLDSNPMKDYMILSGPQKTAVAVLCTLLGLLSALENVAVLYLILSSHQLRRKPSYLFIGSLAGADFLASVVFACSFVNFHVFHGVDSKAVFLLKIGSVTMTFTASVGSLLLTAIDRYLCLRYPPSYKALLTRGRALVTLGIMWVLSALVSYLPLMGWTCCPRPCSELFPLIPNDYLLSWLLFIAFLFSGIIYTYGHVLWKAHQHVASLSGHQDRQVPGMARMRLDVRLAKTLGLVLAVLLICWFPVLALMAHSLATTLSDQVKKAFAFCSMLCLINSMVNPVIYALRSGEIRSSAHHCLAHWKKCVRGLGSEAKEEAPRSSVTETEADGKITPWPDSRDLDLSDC
Outline: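 Membranes from SK-N-MC cells stably expressing human CB2, incubated with test compound and 0.2 nM [3H]-CP-55,940 for 90 min at 30 °C in Tris buffer pH 7.5 with fatty-acid-free BSA. Nonspecific binding defined with 10 uM WIN 55,212; filtration and scintillation counting, IC50 by linear regression.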

human CB1 receptor [2] = target: T1, human CB1 receptor; assay: biochemical; format: binding
Outline: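 Membranes from SK-N-MC cells stably expressing human CB1, incubated 90 minutes at 30° C in Tris-HCl buffer with MgCl2, EDTA and fatty acid free BSA, pH 7.5. Bound counts collected by filtration and scintillation counting; IC50 from linear regression over varying compound concentrations.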

[3] = Cannabinoid CB2 Receptor Binding IC50, human CB2 receptor

| Structure (SMILES) | EC50 (human CB1 receptor [1]) [µM] | IC50 (human CB2 receptor; [3]) [µM] | IC50 (human CB1 receptor [2]) [µM] | EC50 (human CB1 receptor [1]; SK-N-MC cells, CRE β-gal, human CB1 receptor, forskolin, inverse agonist, read-out: CB1 Receptor Functional Inverse Agonist EC50) [µM] | IC50 (human CB2 receptor; human CB2 receptor, read-out: Cannabinoid CB2 Receptor Binding IC50) [µM] | IC50 (human CB1 receptor [2]; human CB1 receptor, SK-N-MC cell membranes, radioligand CP-55,940 0.2 nM, read-out: Cannabinoid CB1 Receptor Binding IC50) [µM] |
| --- | --- | --- | --- | --- | --- | --- |
| CCOC(=O)[C@@H]1CCCC[C@@H]1NC(=O)c1nn(Cc2ccccc2)c2c1CCCC2 (relative stereo) [compound 38] | 0.103 | 0.0033 | 0.006 |  |  |  |
| O=C(NN1CCCCC1)c1nn(-c2ccc(Cl)cc2Cl)c2c1CCCC2=Cc1ccc(F)cc1 [Cpd 297, 1-(2,4-dichloro-phenyl)-7-(4-fluoro-benzylidene)-4,5,6,7-tetrahydro-1H-indazole-3-carboxylic acid piperidin-1-ylamide] | 0.005 |  | 0.013 |  |  |  |
| COc1ccc(-n2nc(C(=O)NCCc3ccc(N)cc3)c3c2CCCC3)cc1 [compound 7] |  |  |  | 3.88 | 3.57 | 3.1 |
| COc1ccc(-n2nc(C(=O)NC3C4(C)CCC(C4)C3(C)C)c3c2CCCC3)cc1 (centres unmarked) [compound 9] | 2.75 | 0.0119 | 0.338 |  |  |  |
| CCOC(=O)[C@@H]1CCCC[C@@H]1NC(=O)c1nn(-c2ccc(F)cc2)c2c1CCCC2 [compound 33] | 0.135 | 0.008 | 0.058 |  |  |  |
| CCOC(=O)C1C2CCC(C2)C1NC(=O)c1nn(Cc2ccccc2)c2c1CCCC2 (centres unmarked) [compound 43] | 0.295 | 0.001 | 0.014 |  |  |  |
| CCOC(=O)C1CCCc2c1c(C(=O)NC1C3(C)CCC(C3)C1(C)C)nn2C1CCCCC1 (centres unmarked) [compound 73] | 1.74 | 0.295 | 0.76 |  |  |  |
| CC12CCC(C1)C(C)(C)C2NC(=O)c1nn(-c2ccc(F)cc2)c2c1CCCC2c1ccccc1 (centres unmarked) [compound 144] | 0.176 | 0.04 | 0.22 |  |  |  |
| CCOC(=O)[C@H]1C2CCC(C2)[C@H]1NC(=O)c1nn(-c2ccc(F)cc2)c2c1CCCC2c1ccccc1 (some centres unmarked) [compound 147] | 0.152 | 1.79 | 2.08 |  |  |  |
| CC12CCC(C1)C(C)(C)C2NC(=O)c1nn(-c2ccc(F)cc2)c2c1CCCC2CCc1ccccc1 (centres unmarked) [compound 151] | 0.801 | 0.03 | 0.59 |  |  |  |
| O=C(NC12CC3CC(CC(C3)C1)C2)c1nn(-c2ccc(F)cc2)c2c1CCCC2c1ccccc1 (centres unmarked) [compound 165] | 1.03 | 0.8 |  |  |  |  |
| CCNC(=O)[C@@H]1C2CCC(C2)[C@@H]1NC(=O)c1nn(Cc2ccccc2)c2c1CCCC2 (some centres unmarked) [compound 167] | 3.36 | 0.028 | 1.66 |  |  |  |
| CC(NC(=O)c1nn(Cc2ccccc2)c2c1CCCC2c1ccccc1)c1ccccc1 (centres unmarked) [compound 253] | 1.94 | 0.3 | 0.025 |  |  |  |
| CCOC(=O)C1CCc2c(c(C(=O)NC(C)c3ccccc3)nn2Cc2ccccc2)C1 (centres unmarked) [compound 256] | 0.25 | 0.3 | 0.26 |  |  |  |
| O=C(NN1CCCCC1)c1nn(-c2ccc(Cl)cc2Cl)c2c1CCC/C2=C\c1ccc(Cl)cc1 [compound 290] | 0.044 | 1 | 0.025 |  |  |  |
| O=C(NN1CCOCC1)c1nn(-c2ccc(Cl)cc2Cl)c2c1CCC/C2=C\c1ccc(Cl)cc1 [compound 291] | 0.01 | 1.7 | 0.18 |  |  |  |
| C[C@@H](NC(=O)c1nn(-c2ccc(Cl)cc2Cl)c2c1CCC/C2=C\c1ccc(F)cc1)C1CCCCC1 [compound 295] | < 0.03 |  | 0.003 |  |  |  |
| C[C@@H](NC(=O)c1nn(-c2ccc(Cl)cc2Cl)c2c1CCC/C2=C\c1ccc(F)cc1)c1ccccc1 [compound 296] | 0.013 |  | 0.005 |  |  |  |
| O=C(NN1CCOCC1)c1nn(-c2ccc(Cl)cc2Cl)c2c1CCC/C2=C\c1ccc(F)cc1 [compound 298] | 0.004 |  | 0.064 |  |  |  |
| C[C@H](NC(=O)c1nn(-c2ccc(Cl)cc2Cl)c2c1CCCC2=Cc1ccc(F)cc1)C1CCCCC1 [compound 309] | 0.081 |  | 0.047 |  |  |  |
| CC(NC(=O)c1nn(-c2ccc(Cl)cc2Cl)c2c1CCC/C2=C\c1ccc(Cl)cc1)c1ccccn1 (centres unmarked) [compound 320] | 0.001 |  | 0.014 |  |  |  |
